# Measurements taken from patent US20220378699A1, “SELF-E[…] EXTRACT” (ISRAEL PLASTICS AND RUBBER CENTER LTD., priority 2019, published 2022).
# Where two headings read alike, the source gives them in different places.
# Test: In-vivo evaluation: phytocannabinoid serum concentrations after oral administration
# Design: species or system mice (C57BL/6 J)
# Details: male, C57BL/6J, mouse, mice, 5 mg CBD/kg, 90 min after dosing, average ± standard error
# Description: Animal studies were performed in compliance with the Guide for the Care and Use of Laboratory Animals established by the National Institutes of Health. All procedures and protocols were approved by the Technion Administrative Panel of Laboratory Animal Care (#:IL_050-05-2018).
# Subjects 10 adult male mice (C57BL/6 J; The Jackson Laboratory), weighing 20-30 gr were housed in standard laboratory conditions with controlled temperature, humidity, light/dark cycle, ad libitum access to water and regular diet. The experiment was performed at noon, during the light cycle.
# CME tea was prepared by pouring 13.3 ml of hot di-ionized water (80° c) over 20 mg of dry SE particles, resulting in CME concentration of […]. The mixture was then genteelly stirred until complete dissolution was observed.
# The control solution was prepared by dissolving CME in a solution of 1:1:18 EtOH: Cremophor: PBS. First, 8.5 mg of CME were dissolved in 0.5 ml of EtOH. After that 0.5 ml of Cremophor was added and the mixture was stirred for one hour. Finally, 9 ml of PBS were added, and the mixture was stirred for 30 minutes. Both CME tea and control solution concentrations were calculated to match a dose of 5 mg CBD/kg for a volume intake of 200 μl and an average mouse weight of 25 gr.
# For both the control group (5 mice) and the experiment group (5 mice) a dose of 200 μl was orally administered via direct injection to the stomach.
# The mice were sacrificed 1.5 hours after oral administration. Blood samples were immediately taken and stored for further examination.
# A sample of 600 μl of an extraction solution containing 0.1% v/v acetic acid in a methanol: acetonitrile 1:1 mixture, spiked with 20 ng/ml deuterated internal standards (ISs) was added to 200 μl serum sample. Samples were than vortexed and centrifuged in order to enable protein and cell precipitation. 3 ml of 0.1% v/v acetic acid in water was then added to the supernatants and the sample was loaded onto Agela Cleanert C8 solid phase extraction (SPE) cartridges (500 mg of sorbent, 50 μm particle size). Elution of phytocannabinoids from the columns was done using 2 ml of 0.1% v/v acetic acid in methanol, followed by an evaporation and reconstituted in 100 μl ethanol.
# Cannabinoid quantitation was performed as described by P. Berman et al. (Berman et al., 2018).
# Phytocannabinoids serum concentrations were evaluated 90 min after oral administration to mice, as detailed above. The control group included a Cremophor EL (castor oil) based emulsion formulation, widely used for its potent solubilizing effect (Comelli F, Giagnoni G, Bettoni I, Colleoni M, 2008). The study group included the F2 tea formulation prepared at 0.62 mg CBD/mL, with both formulations providing 5mg/kg of CBD per body weight.
# [1] = CME in Cremophor EL emulsion (1:1:18 EtOH:Cremophor:PBS), read-out: Serum concentration, Control group
# [2] = po, F2 tea formulation, read-out: Serum Concentration, Experiment Group
Structure (SMILES),concentration at 90 min [1],concentration at 90 min [2]
"CCCCCc1cc(O)c2c(c1)OC(C)(CCC=C(C)C)C=C2 (centres unmarked) [CBC, cannabichromene]",247 ± 48 ng/mL,210 ± 72 ng/mL
"C=C(C)[C@@H]1CCC(C)=C[C@H]1c1c(O)cc(CCCCC)cc1O [CBD, cannabidiol]",3100 ± 970 ng/mL,1500 ± 130 ng/mL
"CCCCCc1cc(O)c2c(c1)OC(C)(C)c1ccc(C)cc1-2 [CBN, cannabinol]",100 ± 5 ng/mL,125 ± 12 ng/mL
"CCCCCc1cc(O)c2c(c1)OC(C)(C)[C@@H]1CCC(C)=C[C@@H]21 [THC, (—)-trans-Δ^9-tetrahydrocannabinol]",343 ± 90 ng/mL,115 ± 15 ng/mL
